The structures appear in SMILES notation.

In the case of `CC1CCn2c(c(-c3ccccc3)c3cccnc3c2=O)C(=O)N(Cc2cc(C(F)(F)F)cc(C(F)(F)F)c2)C1` (racemic) [Example 15, (+/−)-7-[3,5-Bis(trifluoromethyl)benzyl]-6,7,8,9,10,11-hexahydro-9-methyl-6,13-dioxo-5-phenyl-13H-[1,4]diazocino[2,1-g][1,7]naphthyridine], the melting point (in general, the temperature of the solid-liquid transition) was in the range of 257 to 258 °C.

As for `Cc1ccc(-c2c3n(c(=O)c4ncccc24)CCC(C)CN(Cc2cc(C(F)(F)F)cc(C(F)(F)F)c2)C3=O)cc1` (racemic) [Example 16, (+/−)-7-[3,5-Bis(trifluoromethyl)benzyl]-6,7,8,9,10,11-hexahydro-9-methyl-5-(4-methylphenyl)-6,13-dioxo-13H-[1,4]diazocino[2,1-g][1,7]naphthyridine], the melting point lay in the range of 280 to 281 °C. Consider `Cc1ccc(-c2c3n(c(=O)c4ncccc24)CC(O)CN(Cc2cc(C(F)(F)F)cc(C(F)(F)F)c2)C3=O)cc1` (racemic) [Example 25, (+/−)-7-[3,5-Bis(trifluoromethyl)benzyl]-6,7,8,9,10,12-hexahydro-9-hydroxy-5-(4-methylphenyl)-6,12-dioxo[1,4]diazepino [2,1-g][1,7]naphthyridine], for which the melting point was 282 to 283 °C. `Cc1ccc(-c2c3n(c(=O)c4ncccc24)CCN(Cc2cc(C(F)(F)F)cc(C(F)(F)F)c2)C3=O)cc1` [Example 1, 7-[3,5-Bis(trifluoromethyl)benzyl]-6,7,8,9-tetrahydro-5-(4-methylphenyl)-6,11-dioxo-11H-pyrazino[2,1-g][1,7]naphthyridine]: the melting point was in the range of 270 to 271 °C.

`Cc1ccc(-c2c3n(c(=O)c4ncccc24)CCCN(Cc2cc(C(F)(F)F)cc(C(F)(F)F)c2)C3=O)cc1` [Example 2, 7-[3,5-Bis(trifluoromethyl)benzyl]-6,7,8,9,10,12-hexahydro-5-(4-methylphenyl)-6,12-dioxo[1,4]diazepino[2,1-g][1,7]naphthyridine] yielded a melting point of 194 to 195 °C.

In the case of `O=C1c2c(-c3ccccc3)ccnc2OCCN1Cc1cc(C(F)(F)F)cc(C(F)(F)F)c1` [Example 11, 4-[3,5-Bis(trifluoromethyl)benzyl]-2,3,4,5-tetrahydro-5-oxo-6-phenylpyrido[3,2-f][1,4]oxazepine], the melting point was 200 to 201 °C.

`Cc1ccc(-c2c3n(c(=O)c4ncccc24)C[C@H](C)CN(Cc2cc(C(F)(F)F)cc(C(F)(F)F)c2)C3=O)cc1` [Example 12, (9R)-7-[3,5-Bis(trifluoromethyl)benzyl]-6,7,8,9,10,12-hexahydro-9-methyl-5-(4-methylphenyl)-6,12-dioxo[1,4]diazepino[2,1-g][1,7]naphthyridine] gave a melting point of 179 to 180 °C. Compound `C[C@H]1CN(Cc2cc(C(F)(F)F)cc(C(F)(F)F)c2)C(=O)c2c(-c3ccccc3)c3cccnc3c(=O)n2C1` [Example 13, (9S)-7-[3,5-Bis(trifluoromethyl)benzyl]-6,7,8,9,10,12-hexahydro-9-methyl-6,12-dioxo-5-phenyl[1,4]diazepino[2,1-g][1,7]naphthyridine] registered a melting point of 150 to 152 °C.

The compound `Cc1ccc(-c2c3n(c(=O)c4ncccc24)C[C@@H](C)CN(Cc2cc(C(F)(F)F)cc(C(F)(F)F)c2)C3=O)cc1` [Example 14, (9S)-7-(3,5-Bis(trifluoromethyl)benzyl]-6,7,8,9,10,12-hexahydro-9-methyl-5-(4-methylphenyl)-6,12-dioxo[1,4]diazepino[2,1-g][1,7]naphthyridine] had a melting point of 179 to 180 °C. For `C[C@@H]1CCn2c(c(-c3ccccc3)c3cccnc3c2=O)C(=O)N(Cc2cc(C(F)(F)F)cc(C(F)(F)F)c2)C1` [Example 17, (9R)-7-[3,5-Bis(trifluoromethyl)benzyl]-6,7,8,9,10,11-hexahydro-9-methyl-6,13-dioxo-5-phenyl-13H-[1,4]diazocino[2,1-g][1,7]naphthyridine], the melting point was 245 to 247 °C.

Consider `Cc1ccc(-c2c3n(c(=O)c4ncccc24)CC[C@@H](C)CN(Cc2cc(C(F)(F)F)cc(C(F)(F)F)c2)C3=O)cc1` [Example 18, (9R)-7-[3,5-Bis(trifluoromethyl)benzyl]-6,7,8,9,10,11-hexahydro-9-methyl-5-(4-methylphenyl)-6,13-dioxo-13H-[1,4]diazocino[2,1-g][1,7]naphthyridine], for which the melting point was in the range of 226 to 228 °C. For `C[C@H]1CCn2c(c(-c3ccccc3)c3cccnc3c2=O)C(=O)N(Cc2cc(C(F)(F)F)cc(C(F)(F)F)c2)C1` [Example 19, (9S)-7-[3,5-Bis(trifluoromethyl)benzyl]-6,7,8,9,10,11-hexahydro-9-methyl-6,13-dioxo-5-phenyl-13H-[1,4]diazocino[2,1-g][1,7]naphthyridine], the melting point is 242 to 244 °C. Then `Cc1ccc(-c2c3n(c(=O)c4ncccc24)CC[C@H](C)CN(Cc2cc(C(F)(F)F)cc(C(F)(F)F)c2)C3=O)cc1` [Example 20, (9S)-7-[3,5-Bis(trifluoromethyl)benzyl]-6,7,8,9,10,11-hexahydro-9-methyl-5-(4-methylphenyl)-6,13-dioxo-13H-[1,4]diazocino[2,1-g][1,7]naphthyridine], with 227 to 228 °C; and `O=C1c2c(-c3ccccc3)ccnc2NCCN1Cc1cc(C(F)(F)F)cc(C(F)(F)F)c1` [Example 21, 4-[3,5-Bis(trifluoromethyl)benzyl]-2,3,4,5-tetrahydro-5-oxo-6-phenyl-1H-pyrido[2,3-e][1,4]diazepine], with 242 to 243 °C. For the compound `O=C1c2c(-c3ccccc3)ccnc2OCCCN1Cc1cc(C(F)(F)F)cc(C(F)(F)F)c1` [Example 22, 5-[3,5-Bis(trifluoromethyl)benzyl]-2,3,4,5-tetrahydro-6-oxo-7-phenyl-6H-pyrido(2,3-b)[1,5]oxazocine], the melting point lay in the range of 188 to 189 °C. `Cc1cnc2c(c1-c1ccccc1)C(=O)N(Cc1cc(C(F)(F)F)cc(C(F)(F)F)c1)C[C@@H](C)CO2` [Example 32, (R)-5-[3,5-Bis(trifluoromethyl)benzyl]-2,3,4,5-tetrahydro-3,8-dimethyl-6-oxo-7-phenyl-6H-pyrido[2,3-b][1,5]oxazocine]: the melting point was 147 to 149 °C.

With `Cc1cc(-c2ccccc2)c2c(n1)OCCN(Cc1cc(C(F)(F)F)cc(C(F)(F)F)c1)C2=O` [Example 33, 4-[3,5-Bis(trifluoromethyl)benzyl)-2,3,4,5-tetrahydro-8-methyl-5-oxo-6-phenylpyrido[3,2-f][1,4]oxazepine], the melting point lay within 151 to 153 °C.

In turn, `Cc1cc(-c2ccccc2)c2c(n1)OCCCN(Cc1cc(C(F)(F)F)cc(C(F)(F)F)c1)C2=O` [Example 34, 5-[3,5-Bis(trifluoromethyl)benzyl]-2,3,4,5-tetrahydro-9-methyl-6-oxo-7-phenyl-6H-pyrido[2,3-b][1,5]oxazocine] had a melting point of 164 to 165 °C. Turning to `Cc1cc(-c2ccccc2)c2c([n+]1[O-])OCCN(Cc1cc(C(F)(F)F)cc(C(F)(F)F)c1)C2=O` [Example 35], the melting point fell in the range of 181 to 183 °C. The value for `CC(=O)OCc1cc(-c2ccccc2)c2c(n1)OCCN(Cc1cc(C(F)(F)F)cc(C(F)(F)F)c1)C2=O` [Example 37, 8-Acetoxymethyl-4-[3,5-bis(trifluoromethyl)benzyl]-2,3,4,5-tetrahydro-5-oxo-6-phenylpyrido(3,2-f][1,4]oxazepine] was 122 to 124 °C; that for `CC(=O)OCc1cc(-c2ccccc2)c2c(n1)OCCCN(Cc1cc(C(F)(F)F)cc(C(F)(F)F)c1)C2=O` [Example 38, 9-Acetoxymethyl-5-[3,5-bis(trifluoromethyl)benzyl]-2.3,4,5-tetrahydro-6-oxo-7-phenyl-6H-pyrido[2,3-b][1,5]oxazocine] was 156 to 157 °C; that for `O=C1c2c(-c3ccccc3)cc(CCl)nc2OCCN1Cc1cc(C(F)(F)F)cc(C(F)(F)F)c1` [Example 39, 4-[3,5-Bis(trifluoromethyl)benzyl]-8-chloromethyl-2,3,4,5-tetrahydro-5-oxo-6-phenylpyrido[3,2-f][1,4]oxazepine] was 183 to 184 °C. For `COCc1cc(-c2ccccc2)c2c(n1)OCCN(Cc1cc(C(F)(F)F)cc(C(F)(F)F)c1)C2=O` [Example 40, 4-[3,5-Bis(trifluoromethyl)benzyl]-2,3,4,5-tetrahydro-8-methoxymethyl-5-oxo-6-phenylpyrido[3,2-f][1,4]oxazepine], the melting point was 139 to 140 °C. The value for `CSCc1cc(-c2ccccc2)c2c(n1)OCCN(Cc1cc(C(F)(F)F)cc(C(F)(F)F)c1)C2=O` [Example 42, 4-[3,5-Bis(trifluoromethyl)benzyl]-2,3,4,5-tetrahydro-8-methylthiomethyl-5-oxo-6-phenylpyrido[3,2-f][1,4]oxazepine] was 165 to 166 °C. Then `NCc1cc(-c2ccccc2)c2c(n1)OCCN(Cc1cc(C(F)(F)F)cc(C(F)(F)F)c1)C2=O` [Example 43, 8-Aminomethyl-4-[3,5-bis(trifluoromethyl)benzyl]-2,3,4,5-tetrahydro-5-oxo-6-phenylpyrido[3,2-f][1,4]oxazepine], with 188 to 191 °C; and `CNCc1cc(-c2ccccc2)c2c(n1)OCCN(Cc1cc(C(F)(F)F)cc(C(F)(F)F)c1)C2=O` [Example 44, 4-[3,5-Bis(trifluoromethyl)benzyl]-2,3,4,5-tetrahydro-8-methylaminomethyl-5-oxo-6-phenylpyrido[3,2-f][1,4]oxazepine], with 152 to 154 °C.

Regarding `CN(C)Cc1cc(-c2ccccc2)c2c(n1)OCCN(Cc1cc(C(F)(F)F)cc(C(F)(F)F)c1)C2=O` [Example 45, 4-[3,5-Bis(trifluoromethyl)benzyl]-8-dimethylaminomethyl-2,3,4,5-tetrahydro-5-oxo-6-phenylpyrido[3,2-f][1,4]oxazepine], the melting point lay in the range of 186 to 188 °C. Regarding `O=C1c2c(-c3ccccc3)cc(CNC3CC3)nc2OCCN1Cc1cc(C(F)(F)F)cc(C(F)(F)F)c1` [Example 46, 4-[3,5-Bis(trifluoromethyl)benzyl]-8-cyclopropylaminomethyl-2,3,4,5-tetrahydro-5-oxo-6-phenylpyrido[3,2-f][1,4]oxazepine], the melting point lay in the range of 129 to 131 °C. For `CC(=O)NCc1cc(-c2ccccc2)c2c(n1)OCCN(Cc1cc(C(F)(F)F)cc(C(F)(F)F)c1)C2=O` [Example 48, 8-Acetylaminomethyl-4-[3,5-bis(trifluoromethyl)benzyl]-2,3,4,5-tetrahydro-5-oxo-6-phenylpyrido[3,2-f][1,4]oxazepine], the melting point is 223 to 224 °C.

These data come from patent publication US6489315B1, “Cyclic compounds, their production and use” (Takeda Chemical Industries, Ltd., priority 1995, dated 2002).
